Experiments:
[1] = system: histamine stimulated gastric acid secretion from rat stomach; assay: Gastric acid secretion measured in vivo (histamine stimulated); design: species or system rat (male Wistar); conditions: for Acid output, mean: histamine 2 mg/kg bolus; for Acid output compared to the histamine control (in words): treated orally, then challenged with histamine, FIGS. 1-3
Description: (§1) Male Wistar rats (weighing 200-225 g) were fasted for 24 hours in wire mesh cages to avoid coprophagy. The rats were obtained from the animal facilities of the Faculty of Medicine and Health Sciences of the United Arab Emirates (UAE) University. Materials
Groups of six rats were used for the experiment. Rats were initially anesthetized with urethane (1.5 g/kg) intraperitoneally. Following general anesthesia, a laparotomy was immediately performed followed by the insertion of a polyethylene tube at the pyloric end of the stomach. This tube was used to collect exudates from the stomach. An orogastric tube was inserted in the stomach via the esophagus. This tube was used to perfuse the stomach with saline (pH 7) at a constant rate of 7 mL/min at 37° C. Following perfusion, effluent samples were collected and titrated against 0.01 M NaOH every 15 minutes for acid secretion. After basal acid output for 1 hour, either saline, quercetin (50 mg/kg,), or diallyl sulfide (50 mg/kg), or allyl disulfide (10 mg/kg) at neutral pH was given orally and 30 minutes later, histamine (2 mg/kg) was administered as a bolus injection. Acid output was monitored continuously for 2 hours thereafter. The acid output was calculated and expressed as μmol (15 min^−1).

[2] = system: gastric ulcer formation in rat stomachs; assay: Antiulcer activity, acidified ethanol-induced gastric ulcer; format: in vivo, rat (male Wistar); design: key to Ulcer Index, Mean: total length of hemorrhagic lesions (mm) = ulcer index; conditions: for Ulcer index compared to the control (in words): acidified ethanol model, rats; for Ulcer Index, Mean: 30 min before acidified ethanol, control 95.00
Description: as §1
Rats were divided into groups of six to seven animals for each experiment. Each group received either neutral pH physiologic saline (1 mL) or water extract of either quercetin, diallyl sulfide or allyl disulfide (1 mg/kg, 10 mg/kg, 50 mg/kg or 100 mg/kg; six rats for each dose) by gastric gavage. Two additional comparison groups received either the proton pump inhibitor Lansoprazole (10 mg/kg) or the H2-receptor antagonist Ranitidine (20 mg/kg). After 30 minutes of the treatment, 1 mL of acidified ethanol (60% ethanol with 150 mM HCl), an ulcerogenic agent, was administered orally to the animals. The animals were sacrificed 1 hour later by increasing the dose of the anaesthesia. The abdomen was incised, and the stomachs removed, cut open along the greater curvature, and rinsed with saline to remove any adherent particles and mucus. The open stomach was spread on a sheet of cork so as to have a clear view of gastric lesions in the gastric mucosa. The total lengths of hemorrhagic lesions, which were approximately 1 mm in length and formed in the glandular portion of the gastric mucosa, were taken as ulcer index. An observer who was unaware of the drug treatments confirmed the ulcer index. The percentage reduction of the ulcer index in the drug-treated groups was calculated from the saline treated groups. The use of 60% ethanol in 150 mM HCl to produce an ulcerogenic effect was based on earlier observation that ethanol 50% and over provided a reproducible model of gastric damage.

[3] = dose 10 mg/kg by gastric gavage
[4] = dose 50 mg/kg by gastric gavage
[5] = dose 100 mg/kg by gastric gavage

Compound | Acid output compared to the histamine control (in words) [1] | Ulcer index compared to the control (in words) [2] | Ulcer Index, Mean ([2]; dose 1 mg/kg by gastric gavage) | Ulcer Index, Mean [2, 3] | Ulcer Index, Mean [2, 4] | Ulcer Index, Mean [2, 5] | Acid output, mean ([1]; time 0 min, 50 mg/kg oral) | Acid output, mean ([1]; time 30 min, 50 mg/kg oral) | Acid output, mean ([1]; time 45 min, 50 mg/kg oral) | Acid output, mean ([1]; time 60 min, 50 mg/kg oral) | Acid output, mean ([1]; time 75 min, 50 mg/kg oral) | Acid output, mean ([1]; time 90 min, 50 mg/kg oral) | Acid output, mean ([1]; time 105 min, 50 mg/kg oral) | Acid output, mean ([1]; time 120 min, 50 mg/kg oral) | Acid output, mean ([1]; time 135 min, 50 mg/kg oral) | Acid output, mean ([1]; time 150 min, 50 mg/kg oral) | other results
C=CCSSCC=C [Allyl disulfide] | reduced acid output compared to the histamine control | significantly reduced ulcer index compared to the control | 11.67 | 0.00 | 8.33 | 11.00 |  |  |  |  |  |  |  |  |  |  | Acid output, mean ([1]; time 0 min, 10 mg/kg oral): 2.154 μmol (15 min^−1); Acid output, mean ([1]; time 30 min, 10 mg/kg oral): 3.514 μmol (15 min^−1); Acid output, mean ([1]; time 45 min, 10 mg/kg oral): 2.458 μmol (15 min^−1); Acid output, mean ([1]; time 60 min, 10 mg/kg oral): 2.085 μmol (15 min^−1); Acid output, mean ([1]; time 75 min, 10 mg/kg oral): 2.701 μmol (15 min^−1); Acid output, mean ([1]; time 90 min, 10 mg/kg oral): 2.77 μmol (15 min^−1); Acid output, mean ([1]; time 105 min, 10 mg/kg oral): 2.648 μmol (15 min^−1); Acid output, mean ([1]; time 120 min, 10 mg/kg oral): 1.431 μmol (15 min^−1); Acid output, mean ([1]; time 135 min, 10 mg/kg oral): 1.286 μmol (15 min^−1); Acid output, mean ([1]; time 150 min, 10 mg/kg oral): 1.34 μmol (15 min^−1)
C=CCSCC=C [Allyl sulfide, Diallyl sulfide] | reduced acid output compared to the histamine control | significantly reduced ulcer index compared to the control | 114.83 | 72.33 | 5.50 | 13.00 | 1.926 μmol (15 min^−1) | 3.328 μmol (15 min^−1) | 2.023 μmol (15 min^−1) | 1.742 μmol (15 min^−1) | 1.901 μmol (15 min^−1) | 1.627 μmol (15 min^−1) | 1.761 μmol (15 min^−1) | 1.883 μmol (15 min^−1) | 2.301 μmol (15 min^−1) | 1.525 μmol (15 min^−1) | 
Cc1c(OCC(F)(F)F)ccnc1C[S+]([O-])c1nc2ccccc2[nH]1 (centres unmarked) [Lansoprazole, reference compound] |  |  |  | 13.00 |  |  |  |  |  |  |  |  |  |  |  |  | 
O=c1c(O)c(-c2ccc(O)c(O)c2)oc2cc(O)cc(O)c12 [Quercetin] | reduced acid output compared to the histamine control | significantly reduced ulcer index compared to the control | 34.00 | 34.00 | 21.83 | 31.17 | 1.633 μmol (15 min^−1) | 3.323 μmol (15 min^−1) | 1.299 μmol (15 min^−1) | 5.507 μmol (15 min^−1) | 2.579 μmol (15 min^−1) | 1.84 μmol (15 min^−1) | 1.868 μmol (15 min^−1) | 2.213 μmol (15 min^−1) | 1.927 μmol (15 min^−1) | 1.497 μmol (15 min^−1) | 
CNC(=C[N+](=O)[O-])NCCSCc1ccc(CN(C)C)o1 [Ranitidine, reference compound] |  |  |  |  |  |  |  |  |  |  |  |  |  |  |  |  | Ulcer Index, Mean ([2]; dose 20 mg/kg): 28.50

From patent US20150182492A1, “Ulcer Treatment” (United Arab Emirates University, priority 2013, published 2015)
